{"source": "patent US20140065075A1", "about": "“TARGETED CONTRAST AGENTS AND USES THEREOF” (RF THERAPEUTICS INC., priority 2011, published 2014)", "system": "necrotic tissue (infarcted myocardial tissue)", "assay": "MRI analysis of contrast agents in vivo: rats, left main coronary artery ligation and reperfusion, MR images compared with tissue histology", "design": "species or system rat", "method": "Contrast agents were prepared following the methods outlined in Examples 1-11 above. Rats (250-300 g—obtained from where?) were used for the following studies detailed below.\nRats were anesthetized by administration of isoflurane (5% induction, 1-2% maintenance) and positioned in an animal holder. The blood pressure and heart rate of the rats were monitored prior to ligation to provide a baseline condition. The rats were subjected to ligation of the left main coronary artery under aseptic conditions. During the ligation, the left thoracic cage of the rat, at the 4th intercostal space was opened to expose the heart muscle. The pericardial sac was cut open and the left main coronary artery was ligated at 2-4 mm from its origin using 6-0 prolene for a period of 2 h. The ligature was then removed to allow for the reperfusion of the infarcted myocardial tissue. Following the ligation procedure, bupivacaine and Cicatrin were applied to the incision. […]\nThe contrast agent was the intravenously injected 4 hours following the start of myocardial reperfusion. The blood pressure and heart rate were monitored during the ligation procedure and the administration of the contrast agent. The body temperature of the rats was monitored with a rectal probe and maintained at the physiological level by the circulating warm water. […]"}
{"smiles": "O=C([O-])CN(CCN(CCN(CC(=O)[O-])CC(=O)Nc1ccc(NC(=O)CN(CCN(CCN(CC(=O)[O-])CC(=O)O)CC(=O)O)CC(=O)[O-])cc1)CC(=O)O)CC(=O)[O-].[Na+].[Na+].[Na+].[Na+].[Na+]", "note": "[RF 1002]", "values": [{"measurement": "contrast enhancement in MR images versus necrotic tissue visible by staining of the tissue sample (binding to necrotic tissue)", "setting": "5 mg/kg and 40 mg/kg intravenous 4 hours after start of reperfusion, 7 Tesla MRI about 4 to 16 hours after administration", "result": "necrotic tissue visible by staining of the tissue sample corresponds to the same region exhibiting contrast enhancement in the MR images"}, {"measurement": "visibility of contrast enhancement on the MRI, dose comparison", "setting": "40 mg/kg versus 5 mg/kg intravenous", "result": "more defined at the higher dosage of contrast agent"}]}
